According to ChEMBL document CHEMBL5614419, “Discovery of novel BCL6-Targeting PROTACs with effective antitumor activities against DLBCL in vitro and in vivo” (Eur J Med Chem, 2024):
Activity calls are given as the source filed them. The calls are words filed in the database; no cut-off is given here.

Columns and labels:
[1] = target: T1, Protein cereblon/B-cell lymphoma 6 protein (Homo sapiens, UniProt Q96SW2+P41182); test: PROTAC activity at CRBN/BCL6 in BCL6-dependent human SU-DHL-4 cells assessed as induction of BCL6 degradation by measuring degradation rate at 1 uM incubated for 48 hrs by Western blot analysis relative to control; type: cell-based
SU-DHL-6 = test: Antiproliferative activity against BCL6-dependent human SU-DHL-6 cells assessed as inhibition in cell growth measured after 6 days by MTT assay; conditions: SU-DHL-6, 144 h
[2] = target: T1, Protein cereblon/B-cell lymphoma 6 protein; test: PROTAC activity at CRBN/BCL6 in human DOHH-2 cells assessed as induction of BCL6 degradation by measuring maximal efficacy incubated for 48 hrs by Western blot analysis relative to control; type: cell-based
[3] = Cytotoxicity against human WI-38 VA13 cells assessed as inhibition in cell growth measured after 6 days by MTT assay; type: toxicity, cell-based; conditions: WI-38 VA13 cells
OCI-Ly1 = test: Antiproliferative activity against BCL6-dependent human OCI-Ly1 cells assessed as inhibition in cell growth measured after 6 days by MTT assay; conditions: OCI-Ly1, 144 h
DOHH-2 = test: Antiproliferative activity against BCL6-dependent human DOHH-2 cells assessed as inhibition in cell growth measured after 6 days by MTS assay; conditions: DOHH-2, 144 h
[4] = target: T1, Protein cereblon/B-cell lymphoma 6 protein; test: PROTAC activity at CRBN/BCL6 in human SU-DHL-4 cells assessed as induction of BCL6 degradation by measuring maximal efficacy incubated for 48 hrs by Western blot analysis relative to control; type: cell-based
[5] = target: T1, Protein cereblon/B-cell lymphoma 6 protein; test: PROTAC activity at CRBN/BCL6 in human SU-DHL-4 cells assessed as induction of BCL6 degradation incubated for 48 hrs by Western blot analysis; type: cell-based
SUD4 [6] = test: Antiproliferative activity against BCL6-dependent human SU-DHL-4 cells assessed as inhibition in cell growth measured after 6 days by MTT assay; conditions: SU-DHL-4, 144 h
[7] = Cytotoxicity against HEK293T cells assessed as inhibition in cell growth measured after 6 days by MTT assay; type: toxicity, cell-based, HEK-293T; conditions: human, HEK293T cells
[8] = target: T1, Protein cereblon/B-cell lymphoma 6 protein; test: PROTAC activity at CRBN/BCL6 in human DOHH-2 cells assessed as induction of BCL6 degradation incubated for 48 hrs by Western blot analysis; type: cell-based
[9] = target: T1, Protein cereblon/B-cell lymphoma 6 protein; test: PROTAC activity at CRBN/BCL6 in BCL6-dependent human SU-DHL-4 cells assessed as induction of BCL6 degradation by measuring degradation rate at 10 uM incubated for 48 hrs by Western blot analysis relative to control; type: cell-based
SUD4 [10] = test: Antiproliferative activity against BCL6-dependent human SU-DHL-4 cells assessed as inhibition of cell growth at 10 uM measured after 6 days by MTT assay relative to control; type: functional; conditions: SU-DHL-4, 144 h, time 6 day
SUD4 [11] = test: Antiproliferative activity against BCL6-dependent human SU-DHL-4 cells assessed as inhibition of cell growth at 1 uM measured after 6 days by MTT assay relative to control; type: functional; conditions: SU-DHL-4, 144 h, time 6 day
SUD4 [12] = test: Upregulation of p27 protein level in human SU-DHL-4 cells at 5 uM preincubated for 48 hrs followed by compound elution and measured after 72 hrs by Western blot analysis; type: functional, cell-based
SUD4 [13] = test: Upregulation of p21 protein level in human SU-DHL-4 cells at 5 uM preincubated for 48 hrs followed by compound elution and measured after 72 hrs by Western blot analysis; type: functional, cell-based
[14] = target: B-cell lymphoma 6 protein (Homo sapiens, UniProt P41182); test: Binding affinity to fluorescent labeled recombinant BCL-6 BTB domain (unknown origin) assessed as dissociation constant incubated for 10 mins by MST analysis

T1 sequence (Q96SW2 whole entry, looked up, other chains not shown): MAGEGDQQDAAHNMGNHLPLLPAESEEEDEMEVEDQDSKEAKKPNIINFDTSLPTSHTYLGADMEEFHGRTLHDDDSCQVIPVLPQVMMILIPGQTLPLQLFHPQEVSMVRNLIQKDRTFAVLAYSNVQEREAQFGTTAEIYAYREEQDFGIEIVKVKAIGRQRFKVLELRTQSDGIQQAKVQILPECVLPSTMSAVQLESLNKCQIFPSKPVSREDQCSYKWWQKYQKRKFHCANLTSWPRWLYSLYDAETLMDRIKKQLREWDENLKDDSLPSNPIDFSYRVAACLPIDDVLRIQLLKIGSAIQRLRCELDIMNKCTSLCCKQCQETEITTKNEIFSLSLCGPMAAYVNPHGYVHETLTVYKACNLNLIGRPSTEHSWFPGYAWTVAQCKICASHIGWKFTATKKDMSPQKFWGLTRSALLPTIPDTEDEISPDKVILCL

Row | SMILES | Activity [1] | Activity [9] | further results
1 | COc1cc(Nc2nc(N3CCN(CCOCCNc4cccc5c4C(=O)N(C4CCC(=O)N(C)C4=O)C5=O)CC3)ncc2F)ccc1NC(=O)c1ccc(C2=CCCC2)s1 (configuration not stated) | 11.9% | 20.7% | IC50 (SU-DHL-6): > 10 µM; Emax [2]: 11.6%; IC50 at 6 days [3]: > 10 µM; IC50 (OCI-Ly1): > 10 µM; IC50 (DOHH-2): > 10 µM; Emax [4]: 29.4%; DC50 [5]: > 10 µM; IC50 (SUD4 [6]): > 10 µM; IC50 at 6 days [7]: > 10 µM; DC50 [8]: > 10 µM
2 | COc1cc(Nc2nc(N3CCN(C(=O)CCOCCOCCNc4cccc5c4C(=O)N(C4CCC(=O)NC4=O)C5=O)CC3)ncc2F)ccc1NC(=O)c1ccc(C2=CCCC2)s1 (configuration not stated) | 28.2% | 48.1% | 
3 | COc1cc(Nc2nc(N3CCN(C(=O)CCOCCNc4cc5c(cc4F)C(=O)C(C4CCC(=O)NC4=O)C5=O)CC3)ncc2F)ccc1NC(=O)c1ccc(C2=CCCC2)s1 (configuration not stated) | 0% | 0% | 
4 | COc1cc(Nc2nc(N3CCN(C(=O)CCOCCNc4ccc5c(c4)C(=O)C(C4CCC(=O)NC4=O)C5=O)CC3)ncc2F)ccc1NC(=O)c1ccc(C2=CCCC2)s1 (configuration not stated) | 36.6% | 34% | 
5 | COc1cc(Nc2nc(N3CCN(C(=O)CCOCC#Cc4cccc5c4CN(C4CCC(=O)NC4=O)C5=O)CC3)ncc2F)ccc1NC(=O)c1ccc(C2=CCCC2)s1 (configuration not stated) | 27.4% | 73.2% | inhibition at 10 µM (SUD4 [10]): 98%; inhibition at 1 µM (SUD4 [11]): 5.7%
6 | COc1cc(Nc2nc(N3C[C@@H](C)N[C@@H](C)C3)ncc2F)ccc1NC(=O)c1ccc(C2=CCCC2)s1 |  |  | Activity (SUD4 [12]): inactive; Activity (SUD4 [13]): inactive
7 | COc1cc(Nc2nc(N3CCN(CCCCCCNc4cccc5c4C(=O)N(C4CCC(=O)NC4=O)C5=O)CC3)ncc2F)ccc1NC(=O)c1ccc(C2=CCCC2)s1 (configuration not stated) | 42.9% | 55.8% | 
8 | COc1cc(Nc2nc(N3CCN(C(=O)CCOCCNc4cccc5c4C(=O)N(C4CCC(=O)NC4=O)C5=O)CC3)ncc2F)ccc1NC(=O)c1ccc(C2=CCCC2)s1 (configuration not stated) | 55.7% | 46.3% | inhibition at 10 µM (SUD4 [10]): 72.9%; inhibition at 1 µM (SUD4 [11]): 47%
9 | COc1cc(Nc2nc(N3CCN(CCCCNc4cccc5c4C(=O)N(C4CCC(=O)NC4=O)C5=O)CC3)ncc2F)ccc1NC(=O)c1ccc(C2=CCCC2)s1 (configuration not stated) | 40.6% | 36.3% | 
10 | COc1cc(Nc2nc(N3CCN(CCOCCNc4ccc5c(c4)C(=O)C(C4CCC(=O)NC4=O)C5=O)CC3)ncc2F)ccc1NC(=O)c1ccc(C2=CCCC2)s1 (configuration not stated) | 5.2% | 21.6% | 
11 | COc1cc(Nc2nc(N3CCN(C(=O)CCOCCNc4cccc5c4CC(C4CCC(=O)NC4=O)C5=O)CC3)ncc2F)ccc1NC(=O)c1ccc(C2=CCCC2)s1 (configuration not stated) | 11.1% | 37% | 
12 | COc1cc(Nc2nc(N3CCN(C(=O)CCCCCNc4cccc5c4C(=O)N(C4CCC(=O)NC4=O)C5=O)CC3)ncc2F)ccc1NC(=O)c1ccc(C2=CCCC2)s1 (configuration not stated) | 38% | 54.1% | inhibition at 10 µM (SUD4 [10]): 41.3%; inhibition at 1 µM (SUD4 [11]): 31%
13 | COc1cc(Nc2nc(N3CCN(CCOCCNc4cccc5c4CC(C4CCC(=O)NC4=O)C5=O)CC3)ncc2F)ccc1NC(=O)c1ccc(C2=CCCC2)s1 (configuration not stated) | 15.7% | 37.1% | 
14 | COc1cc(Nc2nc(N3CCN(C(=O)CCOCCOCCOCCOCCNc4cccc5c4C(=O)N(C4CCC(=O)NC4=O)C5=O)CC3)ncc2F)ccc1NC(=O)c1ccc(C2=CCCC2)s1 (configuration not stated) | 12.2% |  | 
15 | COc1cc(Nc2nc(N3CCN(CCCCCNc4cccc5c4C(=O)N(C4CCC(=O)NC4=O)C5=O)CC3)ncc2F)ccc1NC(=O)c1ccc(C2=CCCC2)s1 (configuration not stated) | 58.4% | 64% | inhibition at 10 µM (SUD4 [10]): 70.1%; inhibition at 1 µM (SUD4 [11]): 58.7%
16 | COc1cc(Nc2nc(N3CCN(C(=O)CCCCCCNc4cccc5c4C(=O)N(C4CCC(=O)NC4=O)C5=O)CC3)ncc2F)ccc1NC(=O)c1ccc(C2=CCCC2)s1 (configuration not stated) | 22.7% | 1.4% | 
17 | COc1cc(Nc2nc(N3CCN(C(=O)CCC4CCN(c5cccc6c5C(=O)N(C5CCC(=O)NC5=O)C6=O)CC4)CC3)ncc2F)ccc1NC(=O)c1ccc(C2=CCCC2)s1 (configuration not stated) | 23.1% | 24.1% | 
18 | COc1cc(Nc2nc(N3CCN(CCOCCOc4cccc5c4C(=O)C(C4CCC(=O)NC4=O)C5=O)CC3)ncc2F)ccc1NC(=O)c1ccc(C2=CCCC2)s1 (configuration not stated) | 13.5% | 26.3% | 
19 | COc1cc(Nc2nc(N3CCN(C(=O)CC4CCN(c5cccc6c5C(=O)N(C5CCC(=O)NC5=O)C6=O)CC4)CC3)ncc2F)ccc1NC(=O)c1ccc(C2=CCCC2)s1 (configuration not stated) | 7.1% | 2.7% | 
20 | COc1cc(Nc2nc(N3CCN(CCOCCOCCNc4cccc5c4C(=O)N(C4CCC(=O)NC4=O)C5=O)CC3)ncc2F)ccc1NC(=O)c1ccc(C2=CCCC2)s1 (configuration not stated) | 35.6% | 38.3% | 
21 | CC[C@H](C)[C@H](NC(=O)[C@H](CO)NC(=O)[C@H](CCCNC(=N)N)NC(=O)CNC(=O)[C@H](C)NC(=O)[C@H](CCC(=O)O)NC(=O)[C@H](CCCCN)NC(=O)[C@@H](NC(=O)[C@@H](NC(=O)[C@H](C)NC(=O)[C@@H](NC(=O)[C@@H](N)CC(C)C)C(C)C)[C@@H](C)O)C(C)C)C(=O)N[C@@H](Cc1cnc[nH]1)C(=O)N[C@@H](CCC(=O)O)C(=O)N[C@H](C(=O)N1CCC[C@H]1C(=O)N[C@@H](CCCNC(=N)N)C(=O)O)[C@@H](C)CC |  |  | Kd [14]: 30 µM
22 | COc1cc(Nc2nc(N3CCN(C(=O)CCCCNc4cccc5c4C(=O)N(C4CCC(=O)NC4=O)C5=O)CC3)ncc2F)ccc1NC(=O)c1ccc(C2=CCCC2)s1 (configuration not stated) | 0.1% | 31.7% | 
23 | COc1cc(Nc2nc(N3CCN(C(=O)CCOCCOCCOCCNc4cccc5c4C(=O)N(C4CCC(=O)NC4=O)C5=O)CC3)ncc2F)ccc1NC(=O)c1ccc(C2=CCCC2)s1 (configuration not stated) | 34.7% | 41.2% | 
